Here are results for 7 molecules from PubChem BioAssay (NCI).

Among the test systems are COLO 205 colon; OVCAR-5 ovarian; SK-MEL-5 melanoma; HS 578T breast; OVCAR-4 ovarian; CCRF-CEM leukemia; MDA-MB-435; RXF 393 renal; CAKI-1 renal; ACHN renal.
Holding throughout (experiment): DTP human tumour cell line panel, 48 h

Each structure is given as a SMILES string.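 The compound was tested at five concentrations on cells cultured in 96-well plates, with a 48-hour exposure period. GI50 is the concentration that inhibits growth by half. TGI: concentration producing complete growth inhibition.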 Where only a bound is given, the exact number is not on record here.

Turning to `O=C(Nc1cccc(Cl)c1)c1cc(Cl)ccc1O`, the GI50 in the assay with COLO 205 colon was 2.64 µM; in the assay with OVCAR-5 ovarian, 3.48 µM; in the assay with SK-MEL-5 melanoma it was 0.274 µM; in the assay on HS 578T breast, 0.282 µM; in the assay with OVCAR-4 ovarian, 1.46 µM; with CCRF-CEM leukemia it was 2.82 µM. Besides, the GI50 is 0.661 µM with MDA-MB-435, 0.849 µM in the assay on RXF 393 renal, 0.837 µM in the assay on CAKI-1 renal and 1.14 µM in the assay on ACHN renal. In addition, the TGI in the assay on COLO 205 colon is 6.71 µM; in the assay with OVCAR-5 ovarian, more than 100 µM; in the assay on SK-MEL-5 melanoma, 0.857 µM; in the assay with HS 578T breast it was 1.46 µM; with OVCAR-4 ovarian, more than 100 µM; in the assay on CCRF-CEM leukemia, 22 µM. Also, the TGI in the assay on MDA-MB-435 is 5.99 µM; with RXF 393 renal it was 4.27 µM; with CAKI-1 renal, 5.79 µM; with ACHN renal, 10.6 µM.

Regarding `CC(C)c1ccc2c(c1)c(SC(C)(C)C)c(CC(C)(C)C(=O)O)n2Cc1ccc(Cl)cc1`, the GI50 in the assay with COLO 205 colon was 8.46 µM; in the assay on OVCAR-5 ovarian, 14.9 µM; in the assay on SK-MEL-5 melanoma it was 9.53 µM; with HS 578T breast, 11.4 µM; in the assay on OVCAR-4 ovarian, 16.9 µM; in the assay on CCRF-CEM leukemia, 4.27 µM. For the same molecule, the GI50 in the assay on MDA-MB-435 is 10.2 µM; with RXF 393 renal, 2.87 µM; with CAKI-1 renal it was 10.8 µM; in the assay on ACHN renal it was 11.6 µM. The total growth inhibition concentration (TGI) in the assay on COLO 205 colon is 21.9 µM; with OVCAR-5 ovarian, 29.2 µM; with SK-MEL-5 melanoma, 22.4 µM; with HS 578T breast it was 29.4 µM; in the assay with OVCAR-4 ovarian it was 49 µM; in the assay with CCRF-CEM leukemia, 29.1 µM. Besides, the TGI turned out to be 26.1 µM with MDA-MB-435, 12.4 µM in the assay with RXF 393 renal, 25.8 µM in the assay with CAKI-1 renal and 24.3 µM with ACHN renal.

Consider `CC[C@H](C)[C@H](NC(=O)N[C@@H](C)c1ccccc1)C(=O)N(C)[C@H](C[C@@H](OC(C)=O)c1nc(C(=O)N[C@@H](Cc2ccccc2)C[C@H](C)C(=O)OC)cs1)C(C)C`, for which the GI50 in the assay on COLO 205 colon is 20.1 µM; in the assay with OVCAR-5 ovarian it was 27.9 µM; with SK-MEL-5 melanoma, 13.1 µM; in the assay on HS 578T breast, 15.9 µM; with OVCAR-4 ovarian, 38.5 µM; with CCRF-CEM leukemia, 23.9 µM. The GI50 is 3.27 µM in the assay with MDA-MB-435, 13.9 µM in the assay with RXF 393 renal, 37.2 µM in the assay with CAKI-1 renal and 29.3 µM in the assay on ACHN renal. Further, the concentration for total growth inhibition (TGI) in the assay on COLO 205 colon is 57.1 µM; in the assay on OVCAR-5 ovarian, more than 100 µM; with SK-MEL-5 melanoma it was 40.2 µM; with HS 578T breast, 56.7 µM; with OVCAR-4 ovarian, more than 100 µM; in the assay with CCRF-CEM leukemia it was more than 100 µM. In addition, the TGI in the assay on MDA-MB-435 is 13.3 µM; in the assay on RXF 393 renal, 57.3 µM; in the assay on CAKI-1 renal, more than 100 µM; in the assay with ACHN renal, more than 100 µM.

On to `Cc1ccc(NCCNCC(O)CO)c2c(=O)c3ccccc3sc12` (stereo not given), for which the GI50 with COLO 205 colon was 1.32 µM; in the assay with OVCAR-5 ovarian, 1.74 µM; in the assay on SK-MEL-5 melanoma, 1.57 µM; with HS 578T breast, 2.19 µM; in the assay with OVCAR-4 ovarian it was 1.86 µM; with CCRF-CEM leukemia, 1.86 µM. The GI50 in the assay on MDA-MB-435 was 1.52 µM; with RXF 393 renal, 1.43 µM; with CAKI-1 renal, 1.64 µM; with ACHN renal it was 1.29 µM. For the same molecule, the TGI came out at 3.02 µM in the assay on COLO 205 colon; 3.67 µM in the assay with OVCAR-5 ovarian; 2.93 µM in the assay on SK-MEL-5 melanoma; 5.9 µM with HS 578T breast; 4.68 µM in the assay on OVCAR-4 ovarian; 4.55 µM in the assay with CCRF-CEM leukemia. The TGI came to 3.1 µM in the assay with MDA-MB-435, 2.89 µM with RXF 393 renal, 3.38 µM with CAKI-1 renal and 3.07 µM with ACHN renal.

On to `COc1ccc(-c2nn3ncccc3c2-c2ccnc(Nc3cccc(C(F)(F)F)c3)n2)cc1`, for which the GI50 is 17 µM in the assay with COLO 205 colon; 6.7 µM in the assay with OVCAR-5 ovarian; 5.27 µM in the assay on SK-MEL-5 melanoma; 8.29 µM in the assay with HS 578T breast; 8.54 µM in the assay on OVCAR-4 ovarian; 6.73 µM in the assay with CCRF-CEM leukemia. Further, the GI50 is 10.1 µM in the assay on MDA-MB-435, 5.76 µM in the assay with RXF 393 renal, 7 µM in the assay on CAKI-1 renal and 6.7 µM in the assay on ACHN renal. The TGI in the assay on COLO 205 colon was more than 25 µM; in the assay on OVCAR-5 ovarian it was more than 25 µM; in the assay with SK-MEL-5 melanoma it was 14.5 µM; in the assay on HS 578T breast it was more than 25 µM; in the assay on OVCAR-4 ovarian, more than 25 µM; in the assay on CCRF-CEM leukemia it was more than 25 µM. Moreover, the TGI is more than 25 µM in the assay on MDA-MB-435, 24.5 µM in the assay with RXF 393 renal, more than 25 µM in the assay with CAKI-1 renal and more than 25 µM in the assay with ACHN renal.

Regarding `Cc1ccc(-c2cc(C(Cl)Cl)on2)cc1`, the GI50 in the assay on COLO 205 colon was 35.4 µM; in the assay with OVCAR-5 ovarian, more than 100 µM; with SK-MEL-5 melanoma it was 25.3 µM; in the assay on HS 578T breast it was more than 100 µM; in the assay with OVCAR-4 ovarian, 77.6 µM; in the assay with CCRF-CEM leukemia, 40.9 µM. Besides, the GI50 is 62.9 µM with MDA-MB-435, more than 100 µM in the assay with RXF 393 renal, 43.8 µM with CAKI-1 renal and 33.5 µM in the assay with ACHN renal. The TGI with COLO 205 colon, in the assay with OVCAR-5 ovarian, in the assay on SK-MEL-5 melanoma, in the assay with HS 578T breast, in the assay with OVCAR-4 ovarian and with CCRF-CEM leukemia was more than 100 µM each time. The TGI in the assay on MDA-MB-435, with RXF 393 renal, with CAKI-1 renal and in the assay with ACHN renal was more than 100 µM each time.

For the molecule `COc1ccc(CNC(=O)c2ccc(-c3cc(-c4nnc(C)o4)ccc3C)cc2)cc1`, the GI50 was more than 22.9 µM in the assay with COLO 205 colon; more than 25 µM in the assay with OVCAR-5 ovarian; 6.17 µM in the assay on SK-MEL-5 melanoma; more than 25 µM in the assay with HS 578T breast; 6.8 µM in the assay on OVCAR-4 ovarian; more than 25 µM in the assay with CCRF-CEM leukemia. In addition, the GI50 is 10.6 µM in the assay with MDA-MB-435, more than 25 µM in the assay on RXF 393 renal, 19.5 µM in the assay with CAKI-1 renal and 16.3 µM in the assay on ACHN renal. In addition, the TGI was more than 25 µM with COLO 205 colon; more than 25 µM in the assay on OVCAR-5 ovarian; more than 19.9 µM with SK-MEL-5 melanoma; more than 25 µM with HS 578T breast; more than 25 µM in the assay with OVCAR-4 ovarian; more than 25 µM with CCRF-CEM leukemia. Moreover, the TGI in the assay on MDA-MB-435, in the assay on RXF 393 renal, in the assay with CAKI-1 renal and with ACHN renal was more than 25 µM in each case.
